Several values for one entry are separate records, joined by “and”; a condition that tells them apart may be missing. Equal entries are not always repeated. Entries after “also recorded” stand apart in the source; their conditions may differ.
What was measured:
[1] = test system: COX-1; conditions: read-out: IC50 COX-1; common NSAIDs; cited from earlier work
[2] = test system: COX; assay: COX fluorescent activity assay on mouse kidney lysates; assay type: biochemical
Experimental: We further sought to experimentally validate the bioactivities of the COX inhibitors predicted by DTINet (Methods). First, we tested their inhibitory potencies on the mouse kidney lysates using the COX fluorescent activity assays.
(§1) Following stimulation, kidneys were harvested from mice, and macrophages from the above treatment were homogenized in 5 ml of cold phosphate-buffered saline (PBS) containing protease inhibitors and centrifuged at 10,000×g for 15 min at 4 °C. The supernatant was assayed by the COX fluorescent activity assay kit according to the manufacturer’s instructions.

[3] = molecular target: T1, COX-2 (Homo sapiens, UniProt P35354); assay: Human recombinant enzyme assay (PGE2 by ELISA): COX-2; assay type: biochemical; conditions: PGE2 levels, 10 μM arachidonic acid
T1 sequence (P35354 18-604): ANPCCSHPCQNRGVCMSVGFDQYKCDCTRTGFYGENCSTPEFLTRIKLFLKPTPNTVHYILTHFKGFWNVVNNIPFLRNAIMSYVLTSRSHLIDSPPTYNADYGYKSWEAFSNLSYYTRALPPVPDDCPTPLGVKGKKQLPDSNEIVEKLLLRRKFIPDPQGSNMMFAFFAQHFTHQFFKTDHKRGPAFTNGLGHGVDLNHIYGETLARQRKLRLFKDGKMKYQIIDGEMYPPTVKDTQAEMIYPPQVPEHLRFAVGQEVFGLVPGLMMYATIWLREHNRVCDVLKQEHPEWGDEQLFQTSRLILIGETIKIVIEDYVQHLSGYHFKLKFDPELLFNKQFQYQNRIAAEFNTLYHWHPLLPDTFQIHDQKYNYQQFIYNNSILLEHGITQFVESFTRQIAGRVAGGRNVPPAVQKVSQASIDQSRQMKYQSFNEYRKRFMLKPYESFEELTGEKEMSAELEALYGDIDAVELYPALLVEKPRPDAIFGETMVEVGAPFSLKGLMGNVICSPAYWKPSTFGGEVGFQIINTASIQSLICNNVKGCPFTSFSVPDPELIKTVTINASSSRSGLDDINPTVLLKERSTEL
Experimental: (§2) Next, the tissue extracts from the mouse kidney and the peritoneal macrophages were used for COX selective inhibition assays. […] To further evaluate the selectivity of these predicted drugs on COX-1 and COX-2, we also used the human recombinant enzyme assays to measure the levels of PGE 2 under COX-1 and COX-2 catalyzes, respectively.
(§3) Then the 10 μM arachidonic acid was added to start the reaction and allowed the process to proceed for 10 min. The reaction was terminated by diluting the reaction into buffer containing 25 μM indomethacin. The final levels of PGE 2 were measured by ELISA.

[4] = molecular target: T2, COX-2 (Mus musculus, UniProt Q05769); assay: COX selective inhibition assay on tissue extracts (COX fluorescent activity, distinguished with SC-560/Dup-697): COX-2; assay type: biochemical; conditions: mouse peritoneal macrophage lysates
T2 construct: the tissue extracts from the mouse kidney and the peritoneal macrophages; from tissue; host or cells: mouse kidney and thioglycollate-elicited peritoneal macrophages (C57BL/6J), homogenate supernatant
T2 sequence (Q05769 18-604): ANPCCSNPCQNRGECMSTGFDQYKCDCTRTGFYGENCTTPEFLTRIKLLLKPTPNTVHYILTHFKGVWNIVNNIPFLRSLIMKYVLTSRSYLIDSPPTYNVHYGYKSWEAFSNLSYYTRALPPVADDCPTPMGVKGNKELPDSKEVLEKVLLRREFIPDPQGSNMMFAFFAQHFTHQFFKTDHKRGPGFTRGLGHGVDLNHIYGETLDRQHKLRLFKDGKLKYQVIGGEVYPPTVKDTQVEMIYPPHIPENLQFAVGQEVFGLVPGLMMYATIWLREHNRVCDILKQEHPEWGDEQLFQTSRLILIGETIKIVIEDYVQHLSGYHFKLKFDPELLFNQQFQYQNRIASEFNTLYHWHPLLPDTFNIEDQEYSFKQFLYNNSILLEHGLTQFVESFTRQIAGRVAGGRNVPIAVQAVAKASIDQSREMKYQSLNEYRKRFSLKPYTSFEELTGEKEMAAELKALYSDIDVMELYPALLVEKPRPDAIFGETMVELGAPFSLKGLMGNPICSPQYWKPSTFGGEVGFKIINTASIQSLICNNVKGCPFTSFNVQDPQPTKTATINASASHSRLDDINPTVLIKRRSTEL
Experimental: as §2
(§4) Peritoneal macrophages were isolated from peritoneum by lavage using 20 ml Dulbecco's modified Eagle’s medium (DMEM) and seeded into six-well plates using […] in DMEM of 10% fetal bovine serum (FBS). Non-adherent cells were removed 6 h later, whereas adherent cells were refed with DMEM of 10% FBS and allowed to recover overnight. […] Cells were harvested for subsequent analysis.
as §1

[5] = molecular target: T1, COX-2; conditions: compounds at their IC50 concentrations, 2 h
[6] = molecular target: recombinant human COX-1 (Homo sapiens, UniProt P23219); assay: Human recombinant enzyme assay (PGE2 by ELISA): COX-1; assay type: biochemical; conditions: PGE2 levels, 10 μM arachidonic acid
Experimental: as §2, §3

[7] = molecular target: T3, COX-1 (Mus musculus, UniProt P22437); assay: COX selective inhibition assay on tissue extracts (COX fluorescent activity, distinguished with SC-560/Dup-697): COX-1; assay type: biochemical; conditions: mouse peritoneal macrophage lysates
T3 construct: the tissue extracts from the mouse kidney and the peritoneal macrophages; from tissue; host or cells: mouse kidney and thioglycollate-elicited peritoneal macrophages (C57BL/6J), homogenate supernatant
T3 sequence (P22437 27-602): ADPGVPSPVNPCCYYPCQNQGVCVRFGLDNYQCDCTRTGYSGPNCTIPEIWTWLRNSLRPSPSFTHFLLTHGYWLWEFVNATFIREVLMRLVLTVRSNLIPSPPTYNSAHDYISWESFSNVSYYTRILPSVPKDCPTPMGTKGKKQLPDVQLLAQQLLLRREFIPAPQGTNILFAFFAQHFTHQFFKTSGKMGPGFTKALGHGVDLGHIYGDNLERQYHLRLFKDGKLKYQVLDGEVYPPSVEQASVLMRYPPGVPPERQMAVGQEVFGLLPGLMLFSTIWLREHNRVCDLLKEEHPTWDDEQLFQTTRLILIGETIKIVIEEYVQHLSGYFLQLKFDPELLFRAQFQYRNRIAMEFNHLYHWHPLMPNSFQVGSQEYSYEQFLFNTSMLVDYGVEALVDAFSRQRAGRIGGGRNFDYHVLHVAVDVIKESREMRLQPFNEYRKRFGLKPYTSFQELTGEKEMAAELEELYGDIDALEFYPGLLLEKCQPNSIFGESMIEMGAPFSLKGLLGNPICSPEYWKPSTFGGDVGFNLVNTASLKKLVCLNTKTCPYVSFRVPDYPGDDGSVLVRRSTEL
Experimental: as §2, §4, §1

[8] = test system: alpha2-containing GlyRs; parameters: method as in Thio et al., 2003; conditions: embryonic mouse hippocampal neurons, low-affinity binding manner, ref Thio et al., 2003; cited from earlier work
[9] = test system: LPS-stimulated peritoneal macrophages; assay: RT-PCR of proinflammatory factors in LPS-stimulated peritoneal macrophages; assay type: cell-based, mouse; conditions: LPS 10 ng/ml
Experimental: Lipopolysaccharide (LPS) was used to stimulate the cultured peritoneal macrophages for the cellular inflammation model.
as §4
Total RNA was extracted from the whole-cell lysates using the Trnzol-A^+ reagent (Tiangen, Cat. no. DP421, China). Reverse transcription was performed using TIANScript RT Kit (Tiangen, Cat. no. KR104-02, China). All real-time PCR reactions were carried out on ABI ViiA 7 Real-Time System (Life Technologies, USA) using TransStart Top Green qPCR SuperMix (Transgen, Cat. no. AQ131-03, China). The formula 2^−ΔΔCt was used to calculate the relative expression. The expression of the housekeeping gene GAPDH was used as an internal control.

[10] = test system: COX-2; conditions: cited from earlier work
[11] = test system: GABA B-subtype (GABA-B) receptors; parameters: method as in ref 27 (Wu et al., 2011); conditions: previous studies, ref 27 (Wu et al., 2011); cited from earlier work
[12] = test system: GlyRs; parameters: method as in Liu et al., 2009; conditions: rat hippocampal neurons, ref Liu et al., 2009; cited from earlier work
[13] = test system: GABA A-subtype (GABA-A) receptors; parameters: method as in ref 28 (Wassef et al., 2003); conditions: previous studies, ref 28 (Wassef et al., 2003); cited from earlier work

recombinant human COX-1, sequence (P23219 24-599): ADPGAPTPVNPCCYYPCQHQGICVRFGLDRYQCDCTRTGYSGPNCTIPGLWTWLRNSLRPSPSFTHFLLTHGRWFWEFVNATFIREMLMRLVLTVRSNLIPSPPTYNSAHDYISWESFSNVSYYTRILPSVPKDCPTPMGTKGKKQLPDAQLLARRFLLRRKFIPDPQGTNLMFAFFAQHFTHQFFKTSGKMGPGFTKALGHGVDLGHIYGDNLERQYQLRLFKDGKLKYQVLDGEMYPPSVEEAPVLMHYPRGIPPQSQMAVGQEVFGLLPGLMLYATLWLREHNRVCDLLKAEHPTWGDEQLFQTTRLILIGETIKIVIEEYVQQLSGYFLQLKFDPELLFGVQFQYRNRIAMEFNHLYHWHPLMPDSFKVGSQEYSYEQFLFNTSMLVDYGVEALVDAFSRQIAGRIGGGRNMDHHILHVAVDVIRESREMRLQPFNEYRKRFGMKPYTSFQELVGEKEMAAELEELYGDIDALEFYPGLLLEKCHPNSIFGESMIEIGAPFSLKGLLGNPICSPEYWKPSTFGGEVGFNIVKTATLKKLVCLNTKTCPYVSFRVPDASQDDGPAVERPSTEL

SMILES	IC50 [2]	IC50 [3] [µM]	Relative COX activity inhibition (%) COX-2 [4] [%]	inhibition of the binding of [3H] celecoxib to COX-2 [5]	Relative COX activity inhibition (%) COX-1 [7] [%]	also measured
CCCNC(=O)NS(=O)(=O)c1ccc(Cl)cc1 [Chlorpropamide]	290 µM and ~300 µM	152	63	~14.00%	37	IC50 [6]: 224 µM
CNC1=Nc2ccc(Cl)cc2C(c2ccccc2)=[N+]([O-])C1 [Chlordiazepoxide]	–	–	–	–	–	effect on alpha2-containing GlyRs [8]: block
NCCCC(O)(P(=O)(O)O)P(=O)(O)O [Alendronate]	160 µM	184	43	~40.67%	57	IL-12p35 production induced by LPS (mRNA, RT-PCR) [9]: significantly inhibited
CS(=O)(=O)c1ccc(C2=C(c3ccccc3)C(=O)OC2)cc1 [rofecoxib]	–	–	–	–	–	IC50 [10]: 25 µM; IC50 [1]: […]
CN1CCN(C2=Nc3cc(Cl)ccc3Nc3ccccc32)CC1 [Clozapine]	–	–	–	–	–	interaction with GABA-B receptors [11]: direct interaction; effect on GlyRs [12]: non-competitive antagonist; effect on GABA-A receptors in the cortex [13]: antagonize
O=C1CN=C(c2ccccc2)c2cc([N+](=O)[O-])ccc2N1 [Nitrazepam]	–	–	–	–	–	effect on alpha2-containing GlyRs [8]: block
CCCc1nc2c(C)cc(-c3nc4ccccc4n3C)cc2n1Cc1ccc(-c2ccccc2C(=O)O)cc1 [Telmisartan]	56.1 µM	91.8	37	about 48.33%	63	IC50 [6]: 42 µM; IL-12p35 production induced by LPS (mRNA, RT-PCR) [9]: significantly inhibited; also recorded: much stronger suppression effect; LPS induced expression of IL-6 (mRNA, RT-PCR) [9]: strong inhibitory effect; LPS induced expression of TNF-α (mRNA, RT-PCR) [9]: strong inhibitory effect; induction of IL-1β (mRNA, RT-PCR) [9]: strongest suppression effect

From article PMC5603535, “A network integration approach for drug-target interaction prediction and computational drug repositioning from heterogeneous information” (Nature Communications, 2017)
